According to patent US20240294545A1 (CSPC Zhongqi Pharmaceutical Technology (Shijiazhuang) Co., …, priority 2020, published 2024):
Marks after values point to notes of the source that are not given here.

Tests used:
[1] = system: intracranial murine glioma GL-261-Luc; assay: Intracranial murine glioma GL-261-Luc model, combined with radiotherapy; type: in vivo, C57BL/6 mice; conditions: for D17 BLI / D 17 TGI: compound 10 mg/kg intragastric qd × 5 + IR 2 Gy; for D17 BLI: day 17; for D 17 TGI: day 17, from bioluminescence
Experimental: 8 Efficacy Test of the Compounds of the Present Disclosure Combined with Radiotherapy in the Intracranial Murine Glioma GL-261-Luc Model
8.1 Experimental Animals: C57BL/6 Mice, SPF, Female, 19 to 22 g.
GL-261-Luc tumor cells, DMEM medium:fetal bovine serum=90%:10%, accompanied by adding […] L-Glu, 37° C., 5% CO2.
Female C57BL/6 mice were anesthetized with Shutai 50 (60 mg/mL) and thiazine (1.5 mg/mL). Buprenorphine (0.1 mg/kg) was injected subcutaneously 30 min before operation and 6 h after operation to relieve pain. The operation area was disinfected with 70% ethanol solution. A sagittal incision was made on the parietal-occipital bone of anesthetized mice with a sterile scalpel, after cleaning the exposed skull surface with 3% hydrogen peroxide solution, tumor cells were injected. After injection, the skull was cleaned with 3% hydrogen peroxide solution, dried with a sterile dry cotton swab, and the incision was sutured. The state of mice was examined continuously to ensure that mice fully recovered from anesthesia.
The inoculated mice were weighed and intraperitoneally injected with […] (150 mg/kg). After 10 min injection, the animals were anesthetized with a mixture of oxygen and isoflurane. When the animal was completely anesthetized, it was moved into the imaging room for bioluminescence detection. The bioluminescence signal of the whole animal was measured and recorded for the image.
Bioluminescence detection was performed on the second day after operation, and the tumor-bearing mice were randomly divided into groups according to the intensity of bioluminescence. The specific groups were as follows. The administration route was intragastric administration and then JR 1 h after administration.
After grouping, bioluminescence detection was performed 1 to 2 times a week, according to the bioluminescence data, tumor growth inhibitory rate was calculated as follows: TGI (%)=[1−(Ti−T0)/(Vi−V0)]×100, wherein Ti represents the mean bioluminescence data of a given treatment group on a certain day; T0 represents the mean bioluminescence data of this treatment group at the beginning of administration; Vi represents the mean bioluminescence data of the vehicle control group on a certain day (the same day as that in Ti); V0 represents the mean bioluminescence data of the vehicle control group at the beginning of administration.

ATM-phosphorylated KAP1 = assay: Intracellular ATM-phosphorylated KAP1 level, ICW assay in MCF7 cells; type: cell-based, Human; conditions: Homo sapiens, light or radiation study; MCF7 cells, 2 h compound, 10 Gy irradiation, further 1 h; read-out: pKAP1 IC50

Row | Structure (SMILES) | anti-tumor activity, in words ([1]; combined with radiotherapy, compared with AZD1390) | D17 BLI [1] | D 17 TGI [1] | IC50 (ATM-phosphorylated KAP1)
1 | Cn1c(=O)n2c3c4c(c(-c5ccc(OCCCN6CCCCC6)nc5)c(F)cc4ncc31)NCC2(C)C [Example A-193, 6-fluoro-2,10,10-trimethyl-7-(6-(3-(piperidin-1-yl)propoxy)pyridin-3-yl)-2,8,9,10-tetrahydro-1H-2,4,8,10a-tetraazanaphtho[2,1,8-cde]azulen-1(2H)-one] | equivalent to that of AZD1390 | 4.94*** LOG10 | 122.49% | 1.75 nM
2 | CC(C)n1c(=O)n(C)c2cnc3cc(F)c(-c4ccc(OCCCN5CCCCC5)nc4)cc3c21 [AZD1390, reference compound] | – | 4.90*** LOG10 | 124.08% | 0.45 nM
